According to US20160030364A1, “Therapeutic Compositions and Uses Thereof” (MANUKA HEALTH NEW ZEALAND LIMITED, priority 2013, published 2016):

Legend:
Format in all cases: cell-based
[1] = test system: human oesophageal squamous cell carcinoma cell line (KYSE-30); assay: MTT anti-proliferative assay, KYSE-30 (Examples 3-13)
Experimental: (§1) 5-phenylpenta-2,4-dienoic acid was assessed for its ability to modulate the viability and proliferation of human colorectal adenocarcinoma cells (DLD-1); human colon cancer cell line (HCT-116); human gastric carcinoma cell line (NCI-N87); and human oesophageal squamous cell carcinoma cell line (KYSE-30) as assessed by the MTT assay. The positive control, 5-fluorouracil (5-FU) was included at three concentrations; in addition to an unsupplemented cell control as a negative control in the study. The 5-phenylpenta-2,4-dienoic acid was a genuine standard with chemical structure confirmed by NMR and MS.
(§2) The four human gastrointestinal carcinoma cell lines were revived from cryostorage and cultured in the presence of the test and reference samples. An MTT assay was then performed on the cultures to determine the effect of the samples on the cell viability and proliferation.
(§3) The test sample 5-phenylpenta-2,4-dienoic acid, and all other test samples in Examples 4-12 (except tectochrysln) were Initially dissolved in pure ethanol to a concentration of around 13.35 mg/ml. Tectochrysin was initially dissolved in triethylene glycol mono-methyl ether to the same concentration. Working solutions were then prepared from the stock solutions by dilution to 15% ethanol/Hanks Balanced Salt Solution (ETOH)/HBSS to a concentration of 2 mg/mL solids. In the assay the final concentration of the samples was 200 μg/ml with a final EtOH concentration of 1.5%. Final concentrations of test compounds and propolis prepared as above are as noted in Example 3.
(§4) • 1. Human colorectal adenocarcinoma cells (ATCC CCI-221, DLD-1)(ATCC, Bethesda, Md., USA) • 2. Human gastric carcinoma cells (ATCC CRL-5822, NCI-N87)(ATCC, Bethesda, Md., USA) • 3. Human oesophageal squamous cell carcinoma (ECACC, KYSE-30)(Sigma Aldrich, Auckland, NZ) • 4. Human colon carcinoma cells (ECACC HCT-116)(Sigma Aldrich, Auckland, NZ) • 5. Penicillin-streptomycin solution: 10000 units/ml penicillin, 10 mg/ml streptomycin in 0.9% NaCl (Sigma Cat #P-0781). Stored at −20° C. • 6. For DLD-1 cells: DMEM culture medium (Invitrogen Cat #12100-046). Stored at 4° C. • 7. For NCI-N87 cells: RPMI-1640 medium modified to contain 2 mM L-glutamine, 10 mM HEPES, 1 mM sodium pyruvate, 4500 mg/L glucose, and 1500 mg/L sodium bicarbonate (Sigma R6504). Stored at 4° C. • 8. For KYSE-410 cells: RPMI-1640 medium modified to contain 2 mM L-glutamine (Sigma R6504). Stored at 4° C. • 9. For HCT-116 cells: McCoy's 5A medium modified to contain 2 mM L-glutamine (Sigma M48792). Stored at 4° C. • 10. Trypsin-EDTA solution: 0.25% Trypsin/EDTA, Invitrogen Cat#15400054 (×10 in stock). • 11. Phosphate buffered saline (PBS) (Prepared by TBL). • 12. Hanks Balanced Salt Solution (HBSS). (GIBCO Cat No. 14185-052). Stored at 4° C. • 13. Foetal Bovine Serum (GIBCO Cat #10091-148). Stored at −20° C. • 14. MTT Reagent: 100 mg/vial, (SIGMA Cat. No. M-2128) dissolved in PBS at 10 mg/ml and stored at −20° C. 5 mg/ml MTT solution will be prepared in PBS and stored at 4° C. as working solution. • 15. MTT lysis buffer: 10% sodium dodecyl sulphate (SDS)/45% Dimethyl Formamide (20 g SDS will be dissolved in 100 ml of double-distilled water (DDW), and 90 ml of Dimethyl Formamide will be added to the SDS solution). The pH will be adjusted to 4.7 by glacial acetic acid, and DDW added up to a final volume of 200 ml. • 16. 5-Fluorouracil (5-FU), (Sigma Cat. No. F-6627). Three working solutions will be prepared at 19.5 μg/ml. 6.5 μg/ml and 1.95 μg/ml dissolved in 15% Ethanol/HBSS. Final concentrations will be 1.95 μg/ml (15 μM), 0.65 μg/ml (5 μM) and 0.195 μg/ml (1.5 μM).
(§5) The medium for the propagation of the each of the cells lines is given above. Each medium was prepared following the ATCC/ECACC instructions and supplemented with penicillin-streptomycin solution (10 ml per litre). FBS (at 10%) was added just before use.
• 1. […]

[2] = test system: human colorectal adenocarcinoma cells (DLD-1); assay: MTT anti-proliferative assay, DLD-1 (Examples 3-12); settings: for % stim. / Mean OD (570 nm) / inhibition at 200 µg/mL / % inhibition: 200 μg/ml; for % stim. / Mean OD (570 nm) / % inhibition: 48 hours
Experimental: as §1, §2, §3, §4, §5
• 1. […]

[3] = test system: human gastric carcinoma cell line (NCI-N87); assay: MTT anti-proliferative assay, NCI-N87 (Examples 3-12); settings: for % stim. / Mean OD (570 nm) / inhibition at 200 µg/mL / % inhibition: 200 μg/ml; for % stim. / Mean OD (570 nm) / % inhibition: 48 hours
Experimental: as §1, §2, §3, §4, §5
• 1. […]

[4] = test system: human colon cancer cell line (HCT-116); assay: MTT anti-proliferative assay, HCT-116 (Examples 3-12)
Experimental: as §1, §2, §3, §4, §5
• 1. […]

[5] = test system: human oesophageal squamous cell carcinoma cell line (KYSE-30); assay: MTT anti-proliferative assay, KYSE-30 (Examples 3-13); remark: listed apart in the source
[6] = Examples 3-12, 200 μg/ml, 48 hours
[7] = Homo sapiens, KYSE-30, 48 h, Examples 3-12, 200 μg/ml, 48 hours
[8] = Homo sapiens, HCT-116, 48 h, 200 μg/ml

Row | Structure (SMILES) | % stim. [1, 6] [%] | Mean OD (570 nm) [1, 6] | inhibition at 200 µg/mL [1, 7] [%] | % stim. [2] [%] | Mean OD (570 nm) [2] | inhibition at 200 µg/mL ([2]; Homo sapiens, DLD-1, 48 h) [%] | % stim. [3] [%] | Mean OD (570 nm) [3] | inhibition at 200 µg/mL ([3]; Homo sapiens, NCI-N87, 48 h) [%] | % stim. ([4]; 200 μg/ml, 48 hours) [%] | Mean OD (570 nm) ([4]; 200 μg/ml, 48 hours) | inhibition at 200 µg/mL [4, 8] [%] | % inhibition [2] [%] | % inhibition [3] [%] | also measured
1 | O=C1C[C@@H](c2ccccc2)Oc2cc(O)cc(O)c21 [Pinocembrin, reference compound] | 0 | 0.0225 | 96.3 | 0 | 0.0341 | 91.7 | 0 | 0.1214 | 72.5 | 0 | 0.0045 | 99.1 | – | – | % inhibition ([5]; Example 13, 100 μg/ml): 50.26%; Mean OD (570 nm) ([5]; Example 13, 100 μg/ml): 0.1668; inhibition at 100 µg/mL ([5]; Homo sapiens, KYSE-30, Example 13, 100 μg/ml): 50.3%
2 | O=c1[nH]cc(F)c(=O)[nH]1 [Sample 5-FU, 5-fluorouracil, reference compound] | – | – | – | – | – | – | – | – | – | – | – | – | – | – | inhibition at 0.195 µg/mL ([1]; Homo sapiens, KYSE-30, 48 h, Examples 3-12, 0.195 μg/ml, 48 hours): 23.8%; inhibition at 0.195 µg/mL ([1]; Homo sapiens, KYSE-30, Example 13, 0.195 μg/ml): 3.41%; inhibition at 0.65 µg/mL ([1]; Homo sapiens, KYSE-30, Example 13, 0.65 μg/ml): 16.6%; inhibition at 1.95 µg/mL ([1]; Homo sapiens, KYSE-30, Example 13, 1.95 μg/ml): 31.5%; inhibition at 0.195 µg/mL ([2]; Homo sapiens, DLD-1, 48 h, 0.195 μg/ml): 26.5%; inhibition at 0.65 µg/mL ([2]; Homo sapiens, DLD-1, 48 h, 0.65 μg/ml): 37.3%; inhibition at 1.95 µg/mL ([2]; Homo sapiens, DLD-1, 48 h, 1.95 μg/ml): 41.6%; inhibition at 0.195 µg/mL ([3]; Homo sapiens, NCI-N87, 48 h, 0.195 μg/ml): 7.52%; inhibition at 0.65 µg/mL ([3]; Homo sapiens, NCI-N87, 48 h, 0.65 μg/ml): 17.2%; inhibition at 1.95 µg/mL ([3]; Homo sapiens, NCI-N87, 48 h, 1.95 μg/ml): 16.2%; inhibition at 0.195 µg/mL ([4]; Homo sapiens, HCT-116, 48 h, 0.195 μg/ml): 33.9%; inhibition at 0.65 µg/mL ([4]; Homo sapiens, HCT-116, 48 h, 0.65 μg/ml): 54%; inhibition at 1.95 µg/mL ([4]; Homo sapiens, HCT-116, 48 h, 1.95 μg/ml): 57.3%; inhibition at 0.65 µg/mL ([5]; Homo sapiens, KYSE-30, 48 h, Examples 3-12, 0.65 μg/ml, 48 hours): 39.4%; inhibition at 1.95 µg/mL ([5]; Homo sapiens, KYSE-30, 48 h, Examples 3-12, 1.95 μg/ml, 48 hours): 47.5%
3 | COc1cc(O)c2c(=O)cc(-c3ccccc3)oc2c1 [Tectochrysin, tectochrysin] | – | – | – | – | – | – | – | – | – | – | – | – | 92.8 | 54.0 | % inhibition [1, 6]: 87.6%; % inhibition ([4]; 200 μg/ml, 48 hours): 90.1%
4 | O=C(O)/C=C/c1ccc(O)cc1 [p-coumaric acid, para-coumaric acid, reference compound] | 0 | 0.3243 | 46.1 | 0 | 0.3531 | 14.3 | 0 | 0.3652 | 17.3 | 2.6 | 0.5216 | 0 | 14.34 | 17.31 | –
